IC50 data for 20 molecules are collected here from patent EP2058315A1, “1H-Furo[3,2-C]Pyrazoles active as aurora kinase inhibitors” (Nerviano Medical Sciences S.r.l., priority 2007, dated 2009).

Read-outs that look alike come from different tables or passages of the source.

Assay [1] addresses T1, Aurora-2 (Homo sapiens, UniProt O14965).
T1 sequence (O14965 1-403): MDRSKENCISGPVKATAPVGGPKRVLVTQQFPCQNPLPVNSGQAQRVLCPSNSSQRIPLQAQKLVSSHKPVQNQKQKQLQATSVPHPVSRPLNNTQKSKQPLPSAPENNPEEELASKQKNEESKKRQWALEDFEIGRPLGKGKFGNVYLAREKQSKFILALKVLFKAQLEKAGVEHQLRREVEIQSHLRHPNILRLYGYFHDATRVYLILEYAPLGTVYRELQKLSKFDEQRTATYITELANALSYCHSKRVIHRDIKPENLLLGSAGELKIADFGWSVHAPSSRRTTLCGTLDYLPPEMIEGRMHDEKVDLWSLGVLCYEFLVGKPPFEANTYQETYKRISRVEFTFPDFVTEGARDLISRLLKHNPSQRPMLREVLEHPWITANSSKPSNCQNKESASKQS
The assay is described as follows: Inhibition assay of Aurora-2 activity (SPA technology). Format: biochemical. The method, then: The inhibiting activity and the potency of selected compounds is determined through a method of assay based on the use of the SPA technology (Amersham Pharmacia Biotech).
The assay consists of the transfer of radioactivity labelled phosphate moiety by the kinase to a biotinylated substrate. The resulting 33P-labelled biotinylated product is allowed to bind to streptavidin-coated SPA beads (biotin capacity 130 pmol/mg), and light emitted was measured in a scintillation counter.
Kinase reaction: 8 µM biotinylated peptide (4 repeats of LRRWSLG, commercially available from Sigma, catalogue no. L-3523), 10 µM ATP (0.5 uCi P^33γ-ATP), 7.5 ng Aurora 2, inhibitor in a final volume of 30 µl buffer (HEPES 50 mM pH 7.0, MgCl2 10 mM, 1 mM DTT, 0.2 mg/mL BSA, 3 µM orthovanadate) were added to each well of a 96 U bottom well plate. After 60 minutes at room temperature incubation, the reaction was stopped and biotinylated peptide captured by adding 100 µl of bead suspension.
Stratification: 100 µl of CsCl 5 M were added to each well and stood for 4 hours before radioactivity was counted in the Top-Count instrument.
IC50 determination: inhibitors were tested at different concentrations ranging from 0.0015 to 10 µM. Experimental data were analyzed by the computer program GraphPad Prizm using the four parameter logistic equation: y = bottom+(top-bottom)/(1+10^((logIC50-x)*slope)) where x is the logarithm of the inhibitor concentration, y is the response; y starts at bottom and goes to top with a sigmoid shape. Ki calculation: Experimental method: Reaction was carried out in buffer (10 mM Tris, pH 7.5, 10 mM MgCl2, 0.2 mg/mL BSA, 7.5 mM DTT) containing 3.7 nM enzyme, histone and ATP (constant ratio of cold/labeled ATP 1/3000). The reaction was stopped with EDTA and the substrate captured on phosphomembrane (Multiscreen 96 well plates from Millipore). After extensive washing, the multiscreen plates were read on a top counter. Control (time zero) for each ATP and histone concentrations was measured.

Assay [2] concerns human colon cancer cell line HCT-116. The assay is described as follows: In vitro cell proliferation assay. Format: cell-based. Conditions: HCT-116, 72 hours of treatment, cell count, read-out: Cell Antiproliferation (HCT-116) IC50. The method, then: The human colon cancer cell line HCT-116 was seeded at 5000 cells/cm^2 in 24 wells plate (Costar) using F12 medium (Gibco) supplemented with 10% FCS (EuroClone, Italy) 2 mM L-glutamine and 1% penicillin/streptomycin and maintained at 37°C, 5% CO2 and 96% relative humidity. The following day, plates were treated in duplicates with 5ul of an appropriate dilution of compounds starting from a 10 mM stock in DMSO. Two untreated control wells were included in each plate. After 72 hours of treatment, medium was withdrawn and cells detached from each well using 0.5 mL of 0.05% (w/v) Trypsin, 0,02% (w/v) EDTA (Gibco). Samples were diluted with 9.5 mL of Isoton (Coulter) and counted using a Multisizer 3 cell counter (Beckman Coulter). Data were evaluated as percent of the control wells: % of CTR = (Treated - Blank)/(Control - Blank).
IC50 values were calculated by LSW/Data Analysis using Microsoft Excel sigmoidal curve fitting. […] See, as an example, the following Table 1 reporting the experimental data of some representative compounds of the invention being tested as Aurora-2 kinase inhibitors (IC50 nM) and for their cell antiproliferative effect (IC50 nM), namely: • Compound (1) is 3-[(Thiophene-2-carbonyl)-amino]-1H-furo[3,2-c]pyrazole-5-carboxylic acid (1-methyl-1-phenyl-ethyl)-amide; • Compound (2) is 3-(4-Morpholin-4-ylmethyl-benzoylamino)-1H-furo[3,2-c]pyrazole-5-carboxylic acid[1-(2-fluoro-phenyl)-1-methyl-ethyl]-amide • Compound (3) is 3-[4-(4-Methyl-piperazin-1-yl)-benzoylamino]-1H-furo[3,2-c]pyrazole-5-carboxylic acid (1-phenyl-cyclopropyl)-amide Table 1

The mark [3] stands for this setting: 10 µM ATP, 60 minutes at room temperature, SPA, read-out: Aurora-2 inhibition IC50.
The mark [4] stands for this setting: screened according to the methods of the pharmacology section, read-out: IC50values for Aur2 inhibition.

As to `CN1CCN(c2ccc(C(=O)Nc3n[nH]c4cc(C(=O)NC5(c6ccccc6)CC5)oc34)cc2)CC1` [Compound 3, 3-[4-(4-Methyl-piperazin-1-yl)-benzoylamino]-1H-furo[3,2-c]pyrazole-5-carboxylic acid (1-phenyl-cyclopropyl)-amide], the IC50 in assay [1] (setting [3]) was 4 nM; in assay [1] (setting [4]), < 10 nM; in assay [2] it was 4 nM; in assay [2] (Homo sapiens, HCT-116, 72 h), 4 to 10 nM.

`CC(C)(NC(=O)c1cc2[nH]nc(NC(=O)c3ccc(CN4CCOCC4)cc3)c2o1)c1ccccc1F` [Compound 2, 3-(4-Morpholin-4-ylmethyl-benzoylamino)-1H-furo[3,2-c]pyrazole-5-carboxylic acid[1-(2-fluoro-phenyl)-1-methyl-ethyl]-amide]: the IC50 in assay [1] (setting [3]) is 1 nM; in assay [1] (setting [4]), < 10 nM; in assay [2] it was 2 nM; in assay [2] (Homo sapiens, HCT-116, 72 h), 4 to 10 nM.

For the molecule `CC(C)(NC(=O)c1cc2[nH]nc(NC(=O)c3cccs3)c2o1)c1ccccc1` [Compound 1, 3-[(Thiophene-2-carbonyl)-amino]-1H-furo[3,2-c]pyrazole-5-carboxylic acid (1-methyl-1-phenyl-ethyl)-amide], the IC50 in assay [1] (setting [3]) was 3 nM; in assay [1] (setting [4]), < 10 nM; in assay [2] it was 10 nM.

Turning to `CC(C)(NC(=O)c1cc2[nH]nc(NC(=O)c3ccsc3)c2o1)c1ccccc1` [Compound 63, N-(1-methyl-1-phenylethyl)-3-[(3-thienylcarbonyl)amino]-1H-furo[3,2-c]pyrazole-5-carboxamide], the IC50 in assay [1] (setting [4]) was < 10 nM.

As to `CN1CCN(c2ccc(C(=O)Nc3n[nH]c4cc(C(=O)NC(C)(C)c5ccccc5)oc34)cc2)CC1` [Compound 10, N-(1-methyl-1-phenylethyl)-3-{[4-(4-methylpiperazin-1-yl)benzoyl]amino}-1H-furo[3,2-c]pyrazole-5-carboxamide], the IC50 in assay [1] (setting [4]) was < 10 nM.

As for `CC(C)(NC(=O)c1cc2[nH]nc(NC(=O)c3cscn3)c2o1)c1ccccc1` [Compound 64, N-(1-methyl-1-phenylethyl)-3-[(1,3-thiazol-4-ylcarbonyl)amino]-1H-furo[3,2-c]pyrazole-5-carboxamide], the IC50 in assay [1] (setting [4]) is < 10 nM.

Regarding `CC(C)(NC(=O)c1cc2[nH]nc(NC(=O)c3ccccc3)c2o1)c1ccccc1` [Compound 71, 3-(benzoylamino)-N-(1-methyl-1-phenylethyl)-1H-furo[3,2-c]pyrazole-5-carboxamide], the IC50 in assay [1] (setting [4]) is < 10 nM.

Regarding `CN1CCN(c2ccc(C(=O)Nc3n[nH]c4cc(C(=O)NC(C)(C)c5cccc(Cl)c5)oc34)cc2)CC1` [Compound 26, N-[1-(3-chlorophenyl)-1-methylethyl]-3-{[4-(4-methylpiperazin-1-yl)benzoyl]amino}-1H-furo[3,2-c]pyrazole-5-carboxamide], in assay [1] (setting [4]), the IC50 is < 10 nM.

For the molecule `CC(C)(NC(=O)c1cc2[nH]nc(NC(=O)c3ccccc3)c2o1)c1ccccc1F` [Compound 72, 3-(benzoylamino)-N-[1-(2-fluorophenyl)-1-methylethyl]-1H-furo[3,2-c]pyrazole-5-carboxamide], the IC50 in assay [1] (setting [4]) was < 10 nM.

As to `CC(C)(NC(=O)c1cc2[nH]nc(NC(=O)c3ccc(CN4CCCC4)cc3)c2o1)c1ccccc1` [Compound 34, N-(1-methyl-1-phenylethyl)-3-{[4-(pyrrolidin-1-ylmethyl)benzoyl]amino}-1H-furo[3,2-c]pyrazole-5-carboxamide], in assay [1] (setting [4]), the IC50 is < 10 nM.

On to `O=C(Nc1n[nH]c2cc(C(=O)NC3(c4ccccc4)CCCC3)oc12)c1ccco1` [Compound 40, 3-(2-furoylamino)-N-(1-phenylcyclopentyl)-1H-furo[3,2-c]pyrazole-5-carboxamide], for which the IC50 in assay [1] (setting [4]) is < 10 nM.

On to `O=C(Nc1n[nH]c2cc(C(=O)NC3(c4ccccc4)CC3)oc12)c1ccc(N2CCOCC2)cc1` [Compound 7, 3-[(4-morpholin-4-ylbenzoyl)amino]-N-(1-phenylcyclopropyl)-1H-furo[3,2-c]pyrazole-5-carboxamide], for which, in assay [1] (setting [4]), the IC50 was < 10 nM.

With `CC(C)(NC(=O)c1cc2[nH]nc(NC(=O)c3ccc(OCCN4CCCC4)cc3)c2o1)c1ccccc1F` [Compound 69, N-[1-(2-fluorophenyl)-1-methylethyl]-3-{[4-(2-pyrrolidin-1-ylethoxy)benzoyl]amino}-1H-furo[3,2-c]pyrazole-5-carboxamide], the IC50 in assay [1] (setting [4]) was < 10 nM.

As to `CC(C)(NC(=O)c1cc2[nH]nc(NC(=O)c3ccc(CN4CCCC4)cc3)c2o1)c1ccccc1F` [Compound 73, N-[1-(2-fluorophenyl)-1-methylethyl]-3-{[4-(pyrrolidin-1-ylmethyl)benzoyl]amino}-1H-furo[3,2-c]pyrazole-5-carboxamide], the IC50 in assay [1] (setting [4]) is < 10 nM.

Turning to `CC(C)(NC(=O)c1cc2[nH]nc(NC(=O)c3ccc(CN4CCOCC4)cc3)c2o1)c1ccccc1` [Compound 32, N-(1-methyl-1-phenylethyl)-3-{[4-(morpholin-4-ylmethyl)benzoyl]amino}-1H-furo[3,2-c]pyrazole-5-carboxamide], the IC50 in assay [1] (setting [4]) was < 10 nM.

With `CC(C)(NC(=O)c1cc2[nH]nc(NC(=O)c3ccc(CN4CCCCC4)cc3)c2o1)c1ccccc1F` [Compound 74, N-[1-(2-fluorophenyl)-1-methylethyl]-3-{[4-(piperidin-1-ylmethyl)benzoyl]amino}-1H-furo[3,2-c]pyrazole-5-carboxamide], in assay [1] (setting [4]), the IC50 is < 10 nM.

For the molecule `CN1CCC(Oc2ccc(C(=O)Nc3n[nH]c4cc(C(=O)NC(C)(C)c5ccccc5)oc34)cc2)CC1` [Compound 30, N-(1-methyl-1-phenylethyl)-3-({4-[(1-methylpiperidin-4-yl)oxy]benzoyl}amino)-1H-furo[3,2-c]pyrazole-5-carboxamide], the IC50 in assay [1] (setting [4]) was < 10 nM.

On to `CN1CCN(Cc2ccc(C(=O)Nc3n[nH]c4cc(C(=O)NC(C)(C)c5ccccc5)oc34)cc2)CC1` [Compound 31, N-(1-methyl-1-phenylethyl)-3-({4-[(4-methylpiperazin-1-yl)methyl]benzoyl}amino)-1H-furo[3,2-c]pyrazole-5-carboxamide], for which the IC50 in assay [1] (setting [4]) was < 10 nM.

For `CC(C)(NC(=O)c1cc2[nH]nc(NC(=O)c3ccc(N4CCOCC4)cc3)c2o1)c1ccccc1` [Compound 75, N-(1-methyl-1-phenylethyl)-3-[(4-morpholin-4-ylbenzoyl)amino]-1H-furo[3,2-c]pyrazole-5-carboxamide], in assay [1] (setting [4]), the IC50 was < 10 nM.

As for `Cn1cccc1C(=O)Nc1n[nH]c2cc(C(=O)NC(C)(C)c3ccccc3)oc12` [Compound 33, N-(1-methyl-1-phenylethyl)-3-{[(1-methyl-1H-pyrrol-2-yl)carbonyl]amino}-1H-furo[3,2-c]pyrazole-5-carboxamide], in assay [1] (setting [4]), the IC50 is < 10 nM.
